From patent US12083355B1, “Preparation of photodynamic therapy tablet and method for construction and application of anti-tumor model for enhanced cancer treatment” (Sichuan Cancer Hospital, priority 2023, dated 2024)

What was measured:
Assay in all cases: CCK-8 cell viability assay, anti-tumor model with wireless self-powered photodynamic tablet
Type in all cases: cell-based
Conditions in all cases: 10 μM IKE, PDT groups: 8 μM Ce6 6 h, 20 min 660 nm light, CCK-8 after 24 hours
[1] = tested on: mouse lung cancer cells LLC
Method: (§1) This embodiment provides a comprehensive account of constructing an anti-tumor model utilizing the wireless self-powered photodynamic tablet (8), using human lung cancer cells A549 and H1299, as well as mouse lung cancer cells LLC. The experimental procedure involved seeding 8,000 cells per well in a 96-well plate and allowing them to adhere for 24 hours. The cells were divided into four groups: control group (Ctrl), ferroptosis inducer (IKE) group, photodynamic therapy (PDT) group, and combined treatment of IKE and PDT (IKE+PDT) group. The culture medium was then replaced accordingly: the PDT and IKE+PDT groups received 100 μL of serum-free medium containing 8 μM photosensitizer Ce6, while the Ctrl and IKE groups were replaced with serum-free medium. Following this, the cells were incubated for 6 hours under light avoidance conditions (i.e., in the substantial absence of visible light). Subsequently, the culture medium was replaced again: the IKE and IKE+PDT groups received fresh complete medium containing 10 μM IKE, while the Ctrl and PDT groups received complete medium. The PDT and IKE+PDT groups underwent 20 minutes of photodynamic therapy (e.g., with 660 nm light from the photodynamic tablet). After 24 hours of incubation, a cell viability assay was conducted using the CCK-8 reagent kit. Each experiment was repeated three times, and the data were subjected to statistical analysis.

[2] = tested on: human lung cancer cells A549
Method: as §1

[3] = tested on: human lung cancer cells H1299
Method: as §1

CC(C)Oc1ccc(C(=O)Cn2ccnc2)cc1-n1c(CN2CCN(C(=O)COc3ccc(Cl)cc3)CC2)nc2ccccc2c1=O [IKE]
decrease in cell viability compared to the control group [1]: 30.3%
decrease in cell viability compared to the control group [2]: 22.4%
decrease in cell viability compared to the control group [3]: 26.0%
